Reference: PubChem BioAssay AID2060508 (Molecular Pharmacology Branch, DTP, NCI, 2025)
pIC50: −log10 of the molar value.

Test system: 454973-116-R2-J3-PDC spheroids, viability, % test/control
Test: Anticancer human tumor 454973-116-R2-J3-PDC patient-derived pancreatic carcinoma cell line growth inhibition [GQUAD]
Conditions: spheroids with HUVEC and MSC; for pIC50: curve of first compound; for viability, T/C: stronger effect = lower value
Outline: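 Viability of tumor cells grown as complex spheroids with endothelial and stromal cells, exposed to drug combinations. Top concentration at or near clinical Cmax (else 10 microM), diluted in half-log increments.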

[1] = second compound 0.0316 µM, first compound 0.0316 µM
[2] = second compound 0.0316 µM, first compound 0.1 µM
[3] = second compound 0.0316 µM, first compound 0.316 µM
[4] = second compound 0.0316 µM, first compound 1 µM
[5] = second compound 0.0316 µM, first compound 3.16 µM
[6] = second compound 0.0316 µM, first compound 10 µM
[7] = second compound 0.1 µM, first compound 0.0316 µM
[8] = second compound 0.1 µM, first compound 0.1 µM
[9] = second compound 0.1 µM, first compound 0.316 µM
[10] = second compound 0.1 µM, first compound 1 µM
[11] = second compound 0.1 µM, first compound 3.16 µM
[12] = second compound 0.1 µM, first compound 10 µM
[13] = second compound 0.316 µM, first compound 0.0316 µM
[14] = second compound 0.316 µM, first compound 0.1 µM
[15] = second compound 0.316 µM, first compound 0.316 µM
[16] = second compound 0.316 µM, first compound 1 µM
[17] = second compound 0.316 µM, first compound 3.16 µM
[18] = second compound 0.316 µM, first compound 10 µM
[19] = second compound 1 µM, first compound 0.0316 µM
[20] = second compound 1 µM, first compound 0.1 µM
[21] = second compound 1 µM, first compound 0.316 µM
[22] = second compound 1 µM, first compound 1 µM
[23] = second compound 1 µM, first compound 3.16 µM
[24] = second compound 1 µM, first compound 10 µM
[25] = second compound 3.16 µM, first compound 0.0316 µM
[26] = second compound 3.16 µM, first compound 0.1 µM
[27] = second compound 3.16 µM, first compound 0.316 µM
[28] = second compound 3.16 µM, first compound 1 µM
[29] = second compound 3.16 µM, first compound 3.16 µM
[30] = second compound 3.16 µM, first compound 10 µM
[31] = second compound 10 µM, first compound 0.0316 µM
[32] = second compound 10 µM, first compound 0.1 µM
[33] = second compound 10 µM, first compound 0.316 µM
[34] = second compound 10 µM, first compound 1 µM
[35] = second compound 10 µM, first compound 3.16 µM
[36] = second compound 10 µM, first compound 10 µM
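Further: spheroids exposed to compounds for seven days.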
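Wherever viability, T/C is given: 100% = DMSO vehicle control viability.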

In the case of Cc1cccc(N(C)C(=O)C2C(O)CCN2c2nc(C)cc(C(F)(F)F)c2C#N)c1 (stereo unspecified) + Cc1cnc(CNC(=O)c2c(=O)c3ccc(N4CCCN(C)CC4)nc3n3c2sc2ccccc23)cn1, the pIC50 (second compound 0.0316 µM) was less than 5.00, the pIC50 (second compound 0.1 µM) was less than 5.00 and the pIC50 (second compound 0.316 µM) was less than 5.00. The pIC50 (second compound 1 µM) was less than 5.00, the pIC50 (second compound 3.16 µM) was less than 5.00 and the pIC50 (second compound 10 µM) was greater than 7.50. The viability, T/C [1] was 103%, the viability, T/C [2] was 96.8% and the viability, T/C [3] was 107%. The viability, T/C [4] was 87.5%, the viability, T/C [5] was 108% and the viability, T/C [6] was 93.4%. The viability, T/C [7] was 88.2%, the viability, T/C [8] was 74.3% and the viability, T/C [9] was 71.9%. For the same compound, the viability, T/C [10] was 68.7%, the viability, T/C [11] was 70.2% and the viability, T/C [12] was 69.9%. The viability, T/C [13] was 74.5%, the viability, T/C [14] was 71.5% and the viability, T/C [15] was 71.3%. The viability, T/C [16] was 67.6%, the viability, T/C [17] was 70.8% and the viability, T/C [18] was 66.1%. It also gave a viability, T/C [19] of 71.9%, a viability, T/C [20] of 65.5% and a viability, T/C [21] of 61.2%. The viability, T/C [22] was 65.2%, the viability, T/C [23] was 65% and the viability, T/C [24] was 70%. For the same compound, the viability, T/C [25] was 64.2%, the viability, T/C [26] was 59.4% and the viability, T/C [27] was 62.1%. It also gave a viability, T/C [28] of 65.3%, a viability, T/C [29] of 58.2% and a viability, T/C [30] of 68.4%. For the same compound, the viability, T/C [31] was 0.75%, the viability, T/C [32] was 16.9% and the viability, T/C [33] was 51.1%. For the same compound, the viability, T/C [34] was 34.8%, the viability, T/C [35] was 0.59% and the viability, T/C [36] was 0.31%.

With Cn1ncnc1[C@H]1c2n[nH]c(=O)c3cc(F)cc(c23)N[C@@H]1c1ccc(F)cc1 + Cc1cnc(CNC(=O)c2c(=O)c3ccc(N4CCCN(C)CC4)nc3n3c2sc2ccccc23)cn1 the pIC50 (second compound 0.0316 µM) was less than 6.50, the pIC50 (second compound 0.1 µM) was 7.11 and the pIC50 (second compound 0.316 µM) was 7.29. It also gave a pIC50 (second compound 1 µM) of less than 6.50, a pIC50 (second compound 3.16 µM) of less than 6.50 and a pIC50 (second compound 10 µM) greater than 9.00. For the same compound, the viability, T/C (second compound 0.0316 µM, first compound 0.000999 µM) was 108%, the viability, T/C (second compound 0.0316 µM, first compound 0.00316 µM) was 90.2% and the viability, T/C (second compound 0.0316 µM, first compound 0.00999 µM) was 91.4%. The viability, T/C [1] was 80.8%, the viability, T/C (second compound 0.0316 µM, first compound 0.0999 µM) was 70% and the viability, T/C [3] was 59%. For the same compound, the viability, T/C (second compound 0.1 µM, first compound 0.000999 µM) was 83.1%, the viability, T/C (second compound 0.1 µM, first compound 0.00316 µM) was 88.3% and the viability, T/C (second compound 0.1 µM, first compound 0.00999 µM) was 71.8%. It also gave a viability, T/C [7] of 60%, a viability, T/C (second compound 0.1 µM, first compound 0.0999 µM) of 48.8% and a viability, T/C [9] of 36.6%. The viability, T/C (second compound 0.316 µM, first compound 0.000999 µM) was 75.8%, the viability, T/C (second compound 0.316 µM, first compound 0.00316 µM) was 70.3% and the viability, T/C (second compound 0.316 µM, first compound 0.00999 µM) was 65.3%. It also gave a viability, T/C [13] of 51.4%, a viability, T/C (second compound 0.316 µM, first compound 0.0999 µM) of 47.2% and a viability, T/C [15] of 41.6%. It also gave a viability, T/C (second compound 1 µM, first compound 0.000999 µM) of 64.1%, a viability, T/C (second compound 1 µM, first compound 0.00316 µM) of 64.6% and a viability, T/C (second compound 1 µM, first compound 0.00999 µM) of 62%. It also gave a viability, T/C [19] of 53.3%, a viability, T/C (second compound 1 µM, first compound 0.0999 µM) of 56.3% and a viability, T/C [21] of 48.6%. It also gave a viability, T/C (second compound 3.16 µM, first compound 0.000999 µM) of 62.1%, a viability, T/C (second compound 3.16 µM, first compound 0.00316 µM) of 53.4% and a viability, T/C (second compound 3.16 µM, first compound 0.00999 µM) of 60.2%. The viability, T/C [25] was 58.5%, the viability, T/C (second compound 3.16 µM, first compound 0.0999 µM) was 57.1% and the viability, T/C [27] was 53.6%. For the same compound, the viability, T/C (second compound 10 µM, first compound 0.000999 µM) was 0.31%, the viability, T/C (second compound 10 µM, first compound 0.00316 µM) was 0.55% and the viability, T/C (second compound 10 µM, first compound 0.00999 µM) was 31%. For the same compound, the viability, T/C [31] was 36.7%, the viability, T/C (second compound 10 µM, first compound 0.0999 µM) was 0.53% and the viability, T/C [33] was 0.27%.

With O=C(c1cc(Cc2n[nH]c(=O)c3ccccc23)ccc1F)N1CCN(C(=O)C2CC2)CC1 + Cc1cnc(CNC(=O)c2c(=O)c3ccc(N4CCCN(C)CC4)nc3n3c2sc2ccccc23)cn1 the pIC50 (second compound 0.0316 µM) was 5.05, the pIC50 (second compound 0.1 µM) was 5.12 and the pIC50 (second compound 0.316 µM) was 5.21. For the same compound, the pIC50 (second compound 1 µM) was less than 5.00, the pIC50 (second compound 3.16 µM) was less than 5.00 and the pIC50 (second compound 10 µM) was greater than 7.50. The viability, T/C [1] was 103%, the viability, T/C [2] was 85.1% and the viability, T/C [3] was 90.5%. The viability, T/C [4] was 82.8%, the viability, T/C [5] was 80.9% and the viability, T/C [6] was 46.5%. For the same compound, the viability, T/C [7] was 81.1%, the viability, T/C [8] was 80.4% and the viability, T/C [9] was 72.2%. It also gave a viability, T/C [10] of 65.5%, a viability, T/C [11] of 65.8% and a viability, T/C [12] of 44.5%. For the same compound, the viability, T/C [13] was 69.1%, the viability, T/C [14] was 67.4% and the viability, T/C [15] was 61.7%. It also gave a viability, T/C [16] of 65.3%, a viability, T/C [17] of 54.9% and a viability, T/C [18] of 45.9%. It also gave a viability, T/C [19] of 60.5%, a viability, T/C [20] of 65.3% and a viability, T/C [21] of 64%. It also gave a viability, T/C [22] of 63.7%, a viability, T/C [23] of 58.2% and a viability, T/C [24] of 55.4%. The viability, T/C [25] was 74.2%, the viability, T/C [26] was 69.1% and the viability, T/C [27] was 64%. The viability, T/C [28] was 60.9%, the viability, T/C [29] was 58.3% and the viability, T/C [30] was 56.2%. The viability, T/C [31] was 0.27%, the viability, T/C [32] was 18.9% and the viability, T/C [33] was 15.1%. For the same compound, the viability, T/C [34] was 35.9%, the viability, T/C [35] was 0.4% and the viability, T/C [36] was 0.28%.
